Experimental data reported in US9364493B2, “Methods and compositions for enhancing the uptake of therapeutic agents by target cells” (Tsinghua University, priority 2011, dated 2016).

Columns and labels:
[1] = test system: Human microvascular endothelial cells (HMECs); experiment: Internalization of ES and its derivatives in blood vessel endothelial cells (Western Blotting); format: cell-based; settings: for effect on ES internalization in endothelial cells: tested in place of NT: AMB 25-50 μg/mL, methyl-β-cyclodextrin 1-2 mM, filipin 2.5-5 μg/mL; for increase of ES internalization: then ES 5 μg/mL 30 min, vs cells without NT
Description: Human microvascular endothelial cells (HMECs) were from ATCC (accession number CRL 10636). Mouse lymphatic endothelial cells (mLEC) were isolated via digesting peritoneal lymphoma induced by incomplete Freund's adjuvant injection (Zhuo W. et al, Journal of Pathology; 222:249-260). […] (SEQ ID NO:5) at N-terminal, the sequence of which is SEQ ID NO.3 or SEQ ID NO.4 because the first amino acid residue M will be randomly deleted when expressed in E. Coli. ES was obtained from Protgen Ltd., the amino acid sequence of which is SEQ ID NO.1 or SEQ ID NO.2 because the first amino acid residue M will be randomly deleted when expressed in E. Coli. Monomethoxy PEG propionaldehyde (mPEG-ALD) with an average molecular weight of 20 kDa (Jenkem Technology CO., Ltd.,) was used as the PEG reagent for specifically modifying the α-amino group at N-terminal of a protein. PEG-ES and PEG-Endu were prepared by Protgen Ltd. according to the instructions provided in the PEG reagent kit. Monoclonal antibody against ES was purchased from Oncogene Science, Inc. NT and other reagents were purchased from Sigma-Aldrich Co.
The endothelial cells were cultured to reach 90% confluence, and then pre-treated with DMEM medium (Hyclone) containing NT as follows. NT stock solution was added to the medium to a final concentration of 0 μg/mL, 25 μg/mL, or 50 μg/mL, and the culture was then incubated in a 5% CO2 atmosphere at 37° C. for 20 min for NT pre-treatment. After pre-treatment, ES stock solution (5 mg/ml) was added to the medium to a final concentration of 5 μg/mL. The culture was then incubated in a 5% CO2 atmosphere at 37° C. for 30 min to allow the internalization of ES by the endothelial cells. After removing the medium, the endothelial cells were washed with ice-cold PBS for 3 times and then collected. The ES internalization in whole cell lysate, cytosolic fraction, and nuclear fraction was examined by Western Blotting, compared with the cells without NT treatment.
Some other agents which share the same action mechanism as NT were also tested in place of in this example, such as AMB (25-50 μg/mL), methyl-β-cyclodextrin (1-2 mM), and filipin (2.5-5 μg/mL).
Other therapeutic agents which share the same action mechanism as ES can also be used in this example, such as PEG-modified ES. For this purpose, ES was modified with monomethoxy PEG propionaldehyde (mPEG-ALD) of 20 kDa which specifically modifies the N-terminal of a protein, and the product (PEG-ES) was an ES protein conjugated with one PEG molecule at the N-terminal α-amino group of ES.

[2] = test system: p38 MAPK pathway; experiment: p38 MAPK signaling pathway activation in endothelial cells (Western Blotting); format: cell-based; settings: NT 50 μg/mL 20 min and/or ES 5 μg/mL 30 min; vs negative control
Method: (§1) In this example, endothelial cells were separated into four groups: (1) negative control group, neither NT treatment, nor ES treatment; (2) NT group, treatment with NT at 50 μg/mL for 20 min, without ES treatment; (3) ES group, treatment with ES at 5 μg/mL for 30 min, without NT treatment; (4) NT plus ES group, treatment with NT at 50 μg/mL for 20 min, followed by treatment with ES at 5 μg/mL for 30 min. After treatment with the same method as described in Example 1, cells were collected and the ERK and p38 MAPK pathways were examined.

[3] = test system: Human lung adenocarcinoma A549 tumor; experiment: A549 lung adenocarcinoma tumor growth in nude mice; format: in vivo; settings: NT 6 mg/kg i.p. daily alone, fourteen daily injections; vs control group
Method: Human lung adenocarcinoma A549 tumor cells (ATCC accession number CCL-185) at exponential growth were subcutaneously inoculated into 6-8 week-old nude mice (Vital River Laboratory Animal Technology Co., Ltd). When the tumor volume reached 100 mm^3, the tumor bearing nude mice were separated into four groups: (1) negative control, treatment with saline; (2) NT group, treatment with NT (6 mg/kg, intraperitoneal injection, daily), without ES treatment; (3) ES group, treatment with ES (12 mg/kg, intraperitoneal injection, daily), without NT treatment; (4) NT plus ES group, combined treatment with NT (6 mg/kg, intraperitoneal injection, daily) and ES (12 mg/kg, intraperitoneal injection, daily). After fourteen daily injections, mice were sacrificed, and the weight and volume of the tumors were measured.

[4] = test system: tumor blood vessel endothelial cells (CD31) in A549 tumors; experiment: Tumor blood vessel formation assay (CD31 immunofluorescence), A549 mice; format: in vivo, nude mice; settings: NT 6 mg/kg plus ES 12 mg/kg vs ES alone, CD31 blood vessel area
Description: Tumor blood vessel formation assay: Tumors from A549 mice were resected, fixed and sectioned. Samples were detected with primary antibody against CD31 (the marker of tumor blood vessel endothelial cells) and FITC-labeled secondary antibody (Santa Cruz), and then observed with Nikon A1 laser scanning confocal microscope (LSCM). The sectional areas of blood vessels in randomly selected fields (400×) were quantified and averaged with the software of the LSCM system.

[5] = test system: Mouse lymphatic endothelial cells (mLEC); experiment: ES internalization in lymphatic endothelial cells (Western Blotting); format: cell-based; settings: then ES 2 μg/mL 15 min
Description: Human microvascular endothelial cells (HMECs) were from ATCC (accession number CRL 10636). Mouse lymphatic endothelial cells (mLEC) were isolated via digesting peritoneal lymphoma induced by incomplete Freund's adjuvant injection (Zhuo W. et al, Journal of Pathology; 222:249-260). Endu was obtained from Simcere-Medgenn Bio-pharmaceutical Co., Ltd. Endu is a recombinant ES containing an additional amino acid sequence (M)GGSHHHHH (SEQ ID NO:5) at N-terminal, the sequence of which is SEQ ID NO.3 or SEQ ID NO.4 because the first amino acid residue M will be randomly deleted when expressed in E. Coli. ES was obtained from Protgen Ltd., the amino acid sequence of which is SEQ ID NO.1 or SEQ ID NO.2 because the first amino acid residue M will be randomly deleted when expressed in E. Coli. Monomethoxy PEG propionaldehyde (mPEG-ALD) with an average molecular weight of 20 kDa (Jenkem Technology CO., Ltd.,) was used as the PEG reagent for specifically modifying the α-amino group at N-terminal of a protein. PEG-ES and PEG-Endu were prepared by Protgen Ltd. according to the instructions provided in the PEG reagent kit. Monoclonal antibody against ES was purchased from Oncogene Science, Inc. NT and other reagents were purchased from Sigma-Aldrich Co.
The mLECs were pre-treated with DMEM (Hyclone) containing 0, 75, 150, or 300 μg/mL NT in a 5% CO2 atmosphere at 37° C. for 20 min. The cells were then incubated with culture media containing ES (final concentration of 2 μg/mL) in a 5% CO2 atmosphere at 37° C. for 15 min. After treatment, the cells were washed with PBS for 3 times, and then collected. The ES internalization in cells treated with NT at various concentrations was examined by Western Blotting.

[6] = test system: EGFR-expressing A549 cells; experiment: EGFR monoclonal antibody (Cetuximab) internalization in tumor cells (Western Blotting); format: cell-based, human; settings: NT 25 or 50 μg/mL pre-treatment 20 min, then Cetuximab 5 μg/mL 30 min; positively correlated to NT concentrations
Method: EGFR-expressing A549 cells at exponential growth were cultured to reach 90% confluence and then pre-treated with DMEM medium containing NT as follows. NT stock solution was added to the medium to a final concentration of […], 25 μg/mL, or 50 μg/mL, and the culture was then incubated in a 5% CO2 atmosphere at 37° C. for 20 min for NT pre-treatment. After pre-treatment, EGFR monoclonal antibody (Cetuximab, Merck) stock solution (5 mg/ml) was added to the medium to a final concentration of 5 μg/mL. The culture was then incubated in a 5% CO2 atmosphere at 37° C. for 30 min to allow the internalization of EGFR monoclonal antibody by the […]. After treatment, the medium was removed, and the endothelial cells were washed with ice-cold PBS for 3 times and then collected. The EGFR monoclonal antibody internalization in cells was examined by Western Blotting, compared with EGFR monoclonal antibody internalization in cells without NT treatment.

[7] = test system: HMEC; experiment: Transwell cell migration assay; format: cell-based, human; settings: NT 50 μg/mL alone; 10 ng/mL VEGF, 6 hours; vs negative control
Method: Cell migration assay: HMEC (2×10^4 cells per well) were seeded into DMEM (Hyclone) containing 0.5% FBS (Hyclone) and 10 ng/mL VEGF (PeproTech) on the upper layer of Transwell chambers (8 μm pores, Costar). ES (40 μg/mL) or NT (50 μg/mL) was added into both the upper and lower layers, and then the chambers were incubated in a 5% CO2 atmosphere at 37° C. for 6 hours to allow cell migration. […] The numbers of the cells migrated into the lower layer were counted and mean values were calculated. Experiments were performed in triplicate and each experiment was repeated twice.
In this example, endothelial cells were separated into four groups: (1) negative control group, neither NT treatment, nor ES treatment; (2) NT group, treatment with NT at 50 μg/mL, without ES treatment; (3) ES group, treatment with ES at 40 μg/mL, without NT treatment; (4) NT plus ES group, combined treatment with NT at 50 μg/mL and ES at 40 μg/mL. […] ES treatment (ES group) inhibited the transwell migration of endothelial cells by 61%.

[8] = test system: ERK pathway; experiment: ERK signaling pathway activation in endothelial cells (Western Blotting); format: cell-based; settings: NT 50 μg/mL 20 min and/or ES 5 μg/mL 30 min; vs negative control
Method: as §1

[9] = test system: H22 liver cancer; experiment: H22 liver cancer mouse model; format: in vivo
[10] = NT treatment, same dosage and treatment time, positively correlated to NT concentration

With C[C@@H]1[C@H](O)[C@@H](C)/C=C/C=C/C=C/C=C/C=C/C=C/C=C/[C@H](O[C@@H]2O[C@H](C)[C@@H](O)[C@H](N)[C@@H]2O)C[C@@H]2O[C@](O)(C[C@@H](O)C[C@@H](O)[C@H](O)CC[C@@H](O)C[C@@H](O)CC(=O)O[C@H]1C)C[C@H](O)[C@H]2C(=O)O [AMB, Amphotericin B] the “effect on ES internalization in endothelial cells” value (“effect on ES internalization” below) [1] was “can increase ES internalization”.
In the case of C[C@@H]1[C@H](O)[C@@H](C)/C=C/C=C/CC/C=C/C=C/C=C/C=C/C(O[C@H]2O[C@H](C)[C@@H](O)[C@H](N)[C@@H]2O)CC2O[C@](O)(CC(O)C(O)CCC(O)CC(O)CC(O)CC(=O)O[C@H]1C)CC(O)C2C(=O)O (stereo partly shown) [NT, Nystatin], the “effect on activation of p38 MAPK pathway” value [2] is reported as “did not influence”, the “effect on tumor growth (in words)” value [3] is reported as “did not influence tumor growth” and the “effect on inhibitory efficacy of ES on tumor blood vessel formation” value [4] is reported as “potentiated”. For the same molecule, the “increase of ES internalization in mLECs” value ([5]; NT 75 μg/mL pre-treatment 20 min) was 16 fold, the “increase of ES internalization in mLECs” value ([5]; NT 150 μg/mL pre-treatment 20 min) was 32 fold and the “increase of ES internalization in mLECs” value ([5]; NT 300 μg/mL pre-treatment 20 min) was 78 fold. For the same molecule, the “increase of ES internalization” value ([1]; NT 25 μg/mL pre-treatment 20 min) was “about 2 folds”, the “increase of ES internalization” value ([1]; NT 50 μg/mL pre-treatment 20 min) was roughly 15 folds and the “effect on PEG-ES internalization in blood vessel endothelial cells” value ([1]; NT treatment, same PEG-ES dosage and treatment time, positively correlated to NT concentration) was “increased”. The “effect on Endu internalization in endothelial cells” value [1, 10] was “increased”, the “effect on PEG-Endu internalization in endothelial cells” value [1, 10] was “increased” and the “effect on Cetuximab internalization in the cells” value [6] was “significantly increased”. The “effect on transwell migration of endothelial cells (in words)” value [7] was “did not substantially influence”, the “effect on activation of ERK pathway” value [8] was “did not influence” and the “effect on antiangiogenesis activity of ES” value ([9]; tumor blood vessel area) was “enhancement effect”. The “effect on antitumor activity of ES” value ([9]; tumor weight) was “enhancement effect”.
In the case of CCCCC[C@@H](O)[C@H]1C(=O)O[C@H](C)[C@@H](O)/C=C/C=C/C=C/C=C/C=C(\C)[C@@H](O)C[C@H](O)C[C@H](O)C[C@H](O)C[C@H](O)C[C@H](O)C[C@@H]1O [filipin], the “effect on ES internalization” value [1] is reported as “can increase ES internalization”.
In the case of methyl-β-cyclodextrin, the “effect on ES internalization” value [1] is reported as “can increase ES internalization”.
